Test results published in PMC7066280 (Investigational New Drugs, 2019).
“Also recorded” adds a separate entry of the source. Where two headings read alike, the source gives them in different places.

Assays:
[1] = Ivosidenib plasma PK after multiple oral doses (dose escalation); assay type: in vivo, human; conditions: for Cmax / AUC(0-t) / AUC / Tmax: human, plasma, oral; for Cmax / AUC(0-t) / AUC: geometric mean; for AUC(0-t): read-out: AUC0-10hr; for AUC: read-out: AUC0-tau
Method: In the dose escalation portion, patients with 1) glioma and 2) non-glioma solid tumors were enrolled into sequential cohorts using a standard 3 + 3 design. […] At least 3 patients in each cohort also received a single dose 3 days prior to the start of multiple dosing (i.e., day −3).
These samples were optional for any further patients enrolled in these cohorts. Further blood samples were collected from all patients up to 10 h postdose on cycle 1, day 15 and cycle 2, day 1. A subset of samples was also used for evaluation of plasma 4β-hydroxycholesterol (4β-OHC) and 4β-OHC:cholesterol ratios. Blood samples for assessment of 2-HG only were also collected at screening.
(§1) Plasma ivosidenib was measured using two validated liquid chromatography-tandem mass spectrometry (LC-MS/MS) methods. The lower limit of quantification (LLOQ) was 1.00 ng/mL (low-range assay) or 50.0 ng/mL (high-range assay). […] Plasma 2-HG concentrations were measured using a qualified LC-MS/MS method with an LLOQ of 30.0 ng/mL. Concentrations of 2-HG in tumor biopsy samples were quantified using qualified LC-MS/MS methods with an LLOQ of 7.5 μg/g for brain tumor homogenate, 100 ng/g for liver tumor homogenate (low-range assay), and 30 μg/g for liver tumor homogenate (high-range assay). Plasma 4β-OHC and cholesterol were measured using a validated LC-MS/MS method. The LLOQ was 5 ng/mL for 4β-OHC and 25 μg/mL for cholesterol in human plasma.
PK parameters included area under the plasma concentration-time curve (AUC), maximum plasma concentration (Cmax), time to maximum plasma concentration (Tmax), terminal elimination half-life (t1/2), and apparent oral clearance at steady state (CLss/F). Accumulation ratio (Racc), based on Cmax and AUC, was also assessed during the dose escalation portion. PD (2-HG) parameters included baseline-effect value, area under the effect concentration-time curve (AUEC0-10h for the dose escalation portion, or AUEC0-8h for the dose escalation and expansion portions), percent change from baseline in AUEC (%BAUEC0-10h for the escalation portion, or %BAUEC0-8h for the dose escalation and expansion portions), average plasma concentration (Cavg), and percent inhibition for Cavg (%BCavg). For the dose escalation portion, the time-matched ratios of 4β-OHC to cholesterol were calculated.

tumor 2-HG = test: 2-HG in paired tumor biopsy samples; assay type: in vivo; conditions: Homo sapiens; 500 mg QD multiple doses, cycle 3 day 1 and cycle 7 day 1, paired biopsies, 21 patients, all tumor types; read-out: 2-HG inhibition in tumors
Method: Tumor biopsies were also collected for 2-HG assessment at screening, and at day 1 of cycle 3. Further biopsies were collected depending on the status of disease at cycle 7, day 1 or at any time that disease progression was suspected and/or at the end of treatment.
as §1

[2] = Effect of intrinsic and extrinsic factors on ivosidenib CLss/F; assay type: in vivo, human; conditions: 500 mg QD, cycle 2 day 1
Method: Continuous factors assessed included age, body weight, body mass index, baseline creatinine clearance (CLcr), baseline estimated glomerular filtration rate (eGFR), and markers of hepatic function (alanine aminotransferase [ALT], alkaline phosphatase [ALP], aspartate aminotransferase [AST], bilirubin, total protein, and albumin). CLcr was calculated using the Cockcroft and Gault equation and eGFR was calculated using the Modification of Diet in Renal Disease – National Kidney Disease Education Program equations [15]. Categorical factors assessed included sex, ethnicity, race, disease status, concomitant CYP3A4 inhibitor and inducer status, baseline hepatic and renal function category, and tumor type. Renal function was categorized as normal (CLcr ≥ 90 mL/min or eGFR ≥90 mL/min/1.73 m^2), mild impairment (CLcr ≥ 60–89 mL/min or eGFR ≥60–89 mL/min/1.73 m^2), moderate impairment (CLcr ≥ 30–59 mL/min or eGFR ≥30–59 mL/min/1.73 m^2), and severe impairment (CLcr ≥ 15–29 mL/min or eGFR ≥15–29 mL/min/1.73 m^2). Hepatic function category was based on National Cancer Institute (NCI) organ dysfunction working group (ODWG) criteria for hepatic dysfunction (0 = normal, 1 = mild, 2 = moderate, 3 = severe, 4 = liver transplant).

[3] = system: IDH1-mutant advanced solid tumors; conditions: Cmax,ss or AUCss vs best response, dose range tested
From the text: A total of 6 adverse event categories, based on both laboratory abnormalities and reported adverse events, were included in the exposure-response analyses. […] The efficacy endpoint of interest was best response. The exposure-response analyses used modeled nominal steady-state Cmax (Cmax,ss) or AUC (AUCss) as predictors for safety and efficacy variables in the two subgroups of tumor types described earlier.

[4] = 100 mg, non-glioma solid tumors, 100 mg BID, cycle 2 day 1
[5] = 300 mg, glioma, 300 mg QD, cycle 2 day 1
[6] = 300 mg, non-glioma solid tumors, 300 mg QD, cycle 2 day 1
[7] = 400 mg, non-glioma solid tumors, 400 mg QD, cycle 2 day 1
[8] = 500 mg, glioma, 500 mg QD, cycle 2 day 1
[9] = 500 mg, non-glioma solid tumors, 500 mg QD, cycle 2 day 1
[10] = 600 mg, glioma, 600 mg QD, cycle 2 day 1
[11] = 800 mg, non-glioma solid tumors, 800 mg QD, cycle 2 day 1
[12] = 900 mg, glioma, 900 mg QD, cycle 2 day 1
[13] = 1200 mg, non-glioma solid tumors, 1,200 mg QD, cycle 2 day 1

## N#Cc1ccnc(N2C(=O)CC[C@H]2C(=O)N(c2cncc(F)c2)[C@H](C(=O)NC2CC(F)(F)C2)c2ccccc2Cl)c1 [ivosidenib]
[1]; day 15
  accumulation at steady state: approximately 1.5 fold
[1]; [4]
  Cmax: 3560 ng/mL
  AUC(0-t): 28600 ng·h/mL
  AUC: 33600 ng·h/mL
[1]; 100 mg, non-glioma solid tumors, 100 mg BID, cycle 2 day 1, median, read-out: Tmax
  Tmax: 2.5 h
[1]; [5]
  Cmax: 3290 ng/mL
  AUC(0-t): 23700 ng·h/mL
  AUC: 50800 ng·h/mL
[1]; 300 mg, glioma, 300 mg QD, cycle 2 day 1, median, read-out: Tmax
  Tmax: 2.54 h
[1]; [6]
  Cmax: 3160 ng/mL
  AUC(0-t): 23400 ng·h/mL
  AUC: 53200 ng·h/mL
[1]; 300 mg, non-glioma solid tumors, 300 mg QD, cycle 2 day 1, median, read-out: Tmax
  Tmax: 2.05 h
[1]; [7]
  Cmax: 6800 ng/mL
  AUC(0-t): 51600 ng·h/mL
[1]; 400 mg, non-glioma solid tumors, 400 mg QD, cycle 2 day 1, median, read-out: Tmax
  Tmax: 3.03 h
[1]; [8]
  Cmax: 2900 ng/mL
  AUC(0-t): 20500 ng·h/mL
  AUC: 44400 ng·h/mL
[1]; 500 mg, glioma, 500 mg QD, cycle 2 day 1, median, read-out: Tmax
  Tmax: 2 h
[1]; [9]
  Cmax: 4420 ng/mL
  AUC(0-t): 33900 ng·h/mL
  AUC: 72800 ng·h/mL
[1]; 500 mg, non-glioma solid tumors, 500 mg QD, cycle 2 day 1, median, read-out: Tmax
  Tmax: 2.96 h
[1]; [10]
  Cmax: 3800 ng/mL
  AUC(0-t): 29100 ng·h/mL
  AUC: 59800 ng·h/mL
[1]; 600 mg, glioma, 600 mg QD, cycle 2 day 1, median, read-out: Tmax
  Tmax: 2 h
[1]; [11]
  Cmax: 6050 ng/mL
  AUC(0-t): 44500 ng·h/mL
[1]; 800 mg, non-glioma solid tumors, 800 mg QD, cycle 2 day 1, median, read-out: Tmax
  Tmax: 2 h
[1]; [12]
  Cmax: 4100 ng/mL
  AUC(0-t): 31100 ng·h/mL
  AUC: 64500 ng·h/mL
[1]; 900 mg, glioma, 900 mg QD, cycle 2 day 1, median, read-out: Tmax
  Tmax: 2.52 h
[1]; [13]
  Cmax: 7580 ng/mL
  AUC(0-t): 57700 ng·h/mL
  AUC: 120000 ng·h/mL
[1]; 1200 mg, non-glioma solid tumors, 1,200 mg QD, cycle 2 day 1, median, read-out: Tmax
  Tmax: 2.92 h
[1]; after multiple doses, glioma and non-glioma solid tumors, read-out: median Tmax
  Tmax: 2 to 3 h
[1]; multiple dosing, cycle 1
  steady state reached by: ≤ 15 days
[1]; of cycle 1
  steady state for ivosidenib plasma exposure and plasma 2-HG inhibition reached within: ≤ 14 days
Tumor 2-HG
  inhibition at 500 mg: ≤ 100%
[2]
  effect of concomitant weak CYP3A4 inhibitors or inducers on CLss/F: no apparent effect; also recorded: did not appear to affect
  effect of mild or moderate renal impairment or mild hepatic impairment on CLss/F: no apparent effect
[3]
  exposure-efficacy relationship: flat
